Columns and labels:
Monochoria vaginalis = test: Paddy field treatment (Test Example 3); type: in vivo; details: paddy pot, submerged 4 cm, dropped on water surface 10th day after transplantation, 1 kg active ingredient per hectare, evaluated 21st day
How it was run: (§1)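 Index scoring of herbicidal effect and rice safety 21 days after treatment. The wettable powder, dosed at 1 kg a.i./ha, was dripped onto flooded pots (4 cm water) 10 days after transplanting two-leaf Koshihikari rice. Weed seeds had been sown into the puddled soil.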

Ammannia multiflora = test: Paddy field treatment (Test Example 3); type: in vivo; details: paddy pot, submerged 4 cm, dropped on water surface 10th day after transplantation, 1 kg active ingredient per hectare, evaluated 21st day
How it was run: as §1

Scirpus juncoides = test: Paddy field treatment (Test Example 3); type: in vivo; details: paddy pot, submerged 4 cm, dropped on water surface 10th day after transplantation, 1 kg active ingredient per hectare, evaluated 21st day
How it was run: as §1

Chenopodium album [1] = test: Upland soil treatment (Test Example 2); type: in vivo; details: soil surface treatment next day after sowing, wettable powder, 1 kg active ingredient per hectare, evaluated 21st day after application
How it was run: (§2)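 Applies a soil-surface, pre-emergence spray of 1 kg active ingredient/ha (wettable powder in water) one day after sowing; weed control and crop injury are rated on an index scale three weeks later.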

Digitaria adscendens [2] = test: Upland soil treatment (Test Example 2); type: in vivo; details: soil surface treatment next day after sowing, wettable powder, 1 kg active ingredient per hectare, evaluated 21st day after application
How it was run: as §2

Stellaria media [3] = test: Upland soil treatment (Test Example 2); type: in vivo; details: soil surface treatment next day after sowing, wettable powder, 1 kg active ingredient per hectare, evaluated 21st day after application
How it was run: as §2

Setaria viridis [4] = test: Upland soil treatment (Test Example 2); type: in vivo; details: soil surface treatment next day after sowing, wettable powder, 1 kg active ingredient per hectare, evaluated 21st day after application
How it was run: as §2

[5] = system: rice (Oryza sative, variety: Koshihikari); test: Paddy field treatment (Test Example 3), crop; type: in vivo, Oryza sativa; details: transplanted rice two-leaf period, water surface treatment 10th day after transplantation, 1 kg active ingredient per hectare, evaluated 21st day, lower index = higher safety
How it was run: as §1

Echinochloa spp. = test: Paddy field treatment (Test Example 3); type: in vivo, Echinochloa crusgalli; details: paddy pot, submerged 4 cm, dropped on water surface 10th day after transplantation, 1 kg active ingredient per hectare, evaluated 21st day
How it was run: as §1

[6] = system: wheat (Triticum aestivum); test: Upland field foliage treatment (Test Example 1), crop; type: in vivo; details: foliage treatment 14th day after sowing, 1 kg active ingredient per hectare, evaluated 21st day, lower index = higher safety
How it was run: (§3)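 Scored on an index 21 days after treatment: a high value on weeds means more herbicidal effect, and a low value on crops means more crop safety. Treatment was a foliar spray of water-diluted wettable powder at 1 kg a.i./ha, applied to plants 14 days after sowing in upland soil.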

soybean (Glycine max) [7] = test: as above; type: in vivo; details: foliage treatment 14th day after sowing, 1 kg active ingredient per hectare, evaluated 21st day, lower index = higher safety
How it was run: as §3

[8] = system: wheat (Triticum aestivum); test: Upland soil treatment (Test Example 2), crop; type: in vivo; details: soil surface treatment next day after sowing, 1 kg active ingredient per hectare, evaluated 21st day, lower index = higher safety
How it was run: as §2

soybean (Glycine max) [9] = test: Upland soil treatment (Test Example 2), crop; type: in vivo; details: soil surface treatment next day after sowing, 1 kg active ingredient per hectare, evaluated 21st day, lower index = higher safety
How it was run: as §2

Chenopodium album [10] = test: Upland field foliage treatment (Test Example 1); type: in vivo; details: foliage treatment 14th day after sowing, wettable powder, 1 kg active ingredient per hectare, evaluated 21st day after application
How it was run: as §3

Digitaria adscendens [11] = test: Upland field foliage treatment (Test Example 1); type: in vivo; details: foliage treatment 14th day after sowing, wettable powder, 1 kg active ingredient per hectare, evaluated 21st day after application
How it was run: as §3

Stellaria media [12] = test: Upland field foliage treatment (Test Example 1); type: in vivo; details: foliage treatment 14th day after sowing, wettable powder, 1 kg active ingredient per hectare, evaluated 21st day after application
How it was run: as §3

Setaria viridis [13] = test: Upland field foliage treatment (Test Example 1); type: in vivo; details: foliage treatment 14th day after sowing, wettable powder, 1 kg active ingredient per hectare, evaluated 21st day after application
How it was run: as §3

Structure (SMILES) | Herbicidal activity Monochoria vaginalis (Monochoria vaginalis) | Herbicidal activity Ammannia multiflora (Ammannia multiflora) | Herbicidal activity Scirpus juncoides (Scirpus juncoides) | Herbicidal activity Chenopodium album (Chenopodium album [1]) | Herbicidal activity Digitaria adscendens (Digitaria adscendens [2]) | Herbicidal activity Stellaria media (Stellaria media [3]) | Herbicidal activity Setaria viridis (Setaria viridis [4]) | Herbicidal activity Oryza sativa [5] | Herbicidal activity Echinochloa spp. (Echinochloa spp.) | Herbicidal activity Triticum aestivum [6] | Herbicidal activity Glycine max (soybean (Glycine max) [7]) | Herbicidal activity Triticum aestivum [8] | Herbicidal activity Glycine max (soybean (Glycine max) [9]) | Herbicidal activity Chenopodium album (Chenopodium album [10]) | Herbicidal activity Digitaria adscendens (Digitaria adscendens [11]) | Herbicidal activity Stellaria media (Stellaria media [12]) | Herbicidal activity Setaria viridis (Setaria viridis [13])
COC=C(Cn1nc(-c2ccccc2)c(C)c1Cl)C(=O)OC [Compound 45] | 5 (herbicidal effect of not less than 90% by weight) | 4 (herbicidal effect of not less than 70% by weight and less than 90% by weight) | 4 (herbicidal effect of not less than 70% by weight and less than 90% by weight) | 4 (herbicidal effect of not less than 70% by weight and less than 90% by weight) | 4 (herbicidal effect of not less than 70% by weight and less than 90% by weight) | 4 (herbicidal effect of not less than 70% by weight and less than 90% by weight) | 4 (herbicidal effect of not less than 70% by weight and less than 90% by weight) | 0 (herbicidal effect of not less than 0% by weight and less than 10% by weight) | 4 (herbicidal effect of not less than 70% by weight and less than 90% by weight) | 0 (herbicidal effect of not less than 0% by weight and less than 10% by weight) | 1 (herbicidal effect of not less than 10% by weight and less than 30% by weight) | 0 (herbicidal effect of not less than 0% by weight and less than 10% by weight) | 0 (herbicidal effect of not less than 0% by weight and less than 10% by weight) | 5 (herbicidal effect of not less than 90% by weight) | 4 (herbicidal effect of not less than 70% by weight and less than 90% by weight) | 5 (herbicidal effect of not less than 90% by weight) | 4 (herbicidal effect of not less than 70% by weight and less than 90% by weight)
COC=C(Cn1nc(-c2cc(Cl)cc(Cl)c2)cc1C)C(=O)OC [Compound 11] | 3 (herbicidal effect of not less than 50% by weight and less than 70% by weight) | 3 (herbicidal effect of not less than 50% by weight and less than 70% by weight) | 3 (herbicidal effect of not less than 50% by weight and less than 70% by weight) | 4 (herbicidal effect of not less than 70% by weight and less than 90% by weight) | 4 (herbicidal effect of not less than 70% by weight and less than 90% by weight) | 4 (herbicidal effect of not less than 70% by weight and less than 90% by weight) | 4 (herbicidal effect of not less than 70% by weight and less than 90% by weight) | 0 (herbicidal effect of not less than 0% by weight and less than 10% by weight) | 3 (herbicidal effect of not less than 50% by weight and less than 70% by weight) | 0 (herbicidal effect of not less than 0% by weight and less than 10% by weight) | 0 (herbicidal effect of not less than 0% by weight and less than 10% by weight) | 0 (herbicidal effect of not less than 0% by weight and less than 10% by weight) | 0 (herbicidal effect of not less than 0% by weight and less than 10% by weight) | 4 (herbicidal effect of not less than 70% by weight and less than 90% by weight) | 4 (herbicidal effect of not less than 70% by weight and less than 90% by weight) | 4 (herbicidal effect of not less than 70% by weight and less than 90% by weight) | 4 (herbicidal effect of not less than 70% by weight and less than 90% by weight)
COC=C(Cn1nc(-c2ccc(Cl)cc2)c(C)c1C)C(=O)OC [Compound 35] | 4 (herbicidal effect of not less than 70% by weight and less than 90% by weight) | 4 (herbicidal effect of not less than 70% by weight and less than 90% by weight) | 3 (herbicidal effect of not less than 50% by weight and less than 70% by weight) | 4 (herbicidal effect of not less than 70% by weight and less than 90% by weight) | 4 (herbicidal effect of not less than 70% by weight and less than 90% by weight) | 4 (herbicidal effect of not less than 70% by weight and less than 90% by weight) | 4 (herbicidal effect of not less than 70% by weight and less than 90% by weight) | 0 (herbicidal effect of not less than 0% by weight and less than 10% by weight) | 3 (herbicidal effect of not less than 50% by weight and less than 70% by weight) | 0 (herbicidal effect of not less than 0% by weight and less than 10% by weight) | 0 (herbicidal effect of not less than 0% by weight and less than 10% by weight) | 0 (herbicidal effect of not less than 0% by weight and less than 10% by weight) | 0 (herbicidal effect of not less than 0% by weight and less than 10% by weight) | 4 (herbicidal effect of not less than 70% by weight and less than 90% by weight) | 4 (herbicidal effect of not less than 70% by weight and less than 90% by weight) | 4 (herbicidal effect of not less than 70% by weight and less than 90% by weight) | 4 (herbicidal effect of not less than 70% by weight and less than 90% by weight)
COC=C(Cn1nc(-c2cccc(Cl)c2)c(C)c1C)C(=O)OC [Compound 34] | 5 (herbicidal effect of not less than 90% by weight) | 3 (herbicidal effect of not less than 50% by weight and less than 70% by weight) | 3 (herbicidal effect of not less than 50% by weight and less than 70% by weight) | 4 (herbicidal effect of not less than 70% by weight and less than 90% by weight) | 4 (herbicidal effect of not less than 70% by weight and less than 90% by weight) | 4 (herbicidal effect of not less than 70% by weight and less than 90% by weight) | 4 (herbicidal effect of not less than 70% by weight and less than 90% by weight) | 0 (herbicidal effect of not less than 0% by weight and less than 10% by weight) | 3 (herbicidal effect of not less than 50% by weight and less than 70% by weight) | 1 (herbicidal effect of not less than 10% by weight and less than 30% by weight) | 1 (herbicidal effect of not less than 10% by weight and less than 30% by weight) | 0 (herbicidal effect of not less than 0% by weight and less than 10% by weight) | 0 (herbicidal effect of not less than 0% by weight and less than 10% by weight) | 5 (herbicidal effect of not less than 90% by weight) | 5 (herbicidal effect of not less than 90% by weight) | 4 (herbicidal effect of not less than 70% by weight and less than 90% by weight) | 4 (herbicidal effect of not less than 70% by weight and less than 90% by weight)

Source: patent US6809065B2, “Herbicide containing substituted pyrazole derivative as active ingredient” (SDS Biotech K.K., priority 2001, dated 2004)
